Columns and labels:
[1] = tested on: patients with treatment-resistant major depressive disorder (TRD); experiment: Phase 1/2 clinical trial of inhaled 5-MeO-DMT in TRD: safety and tolerability; details: Part A
Protocol: This trial was designed in two parts. Part A was an open-label, single-arm, single-dose Phase 1 trial with two dose levels (12 mg (n=4) and 18 mg (n=4)). […] The primary endpoint of Part B was to assess the effects on the severity of depression, as assessed by the proportion of patients in remission on day seven after dosing, defined as a MADRS total score of less than or equal to 10.

[2] = tested on: Salmonella typhimurium TA98, TA100, TA1535 and TA1537; experiment: Bacterial mutation test, Salmonella typhimurium; type: cell-based; details: up to 5000 µg/plate; absence and presence of rat liver S-9
Description: These conditions included treatments at concentrations up to […] (the maximum recommended concentration according to current regulatory guidelines), in the absence and in the presence of a rat liver metabolic activation system (S-9).

[3] = Acute psychedelic effects after inhalation; parameters: species or system human; details: in vivo
[4] = tested on: patients with treatment-resistant major depressive disorder (TRD); experiment: Phase 1/2 clinical trial of inhaled 5-MeO-DMT in TRD: BPRS; type: in vivo, human; details: for BPRS Emotional Withdrawal percentage improvement / BPRS Emotional Withdrawal score (sum): baseline 13
Description: The Brief Psychiatric Rating Scale (BPRS) is intended to screen for psychiatric symptoms in a structured fashion. The scale is one of the most widely used scales to measure psychotic symptoms and was first published in 1962. The design has later been updated.
The 18 items (somatic concern, anxiety, emotional withdrawal, conceptual disorganization, guilt feelings, tension, mannerisms and posturing, grandiosity, depressive mood, hostility, suspiciousness, hallucinatory behaviour, motor retardation, uncooperativeness, unusual thought content, blunted affect, excitement and disorientation) are scored and each item is rated on a scale of 1-7.
Based on the answers and the behaviours observed, a physician or psychologist will complete the BPRS form by ranking the severity of each area using a scale of one to seven: a score of one means an absence of signs or symptoms up to a score of seven that means it is present and at a severe level. If it is not possible to rate the specific signs or symptoms, a score of 0 or “Not assessed” is recorded.
Patients were assigned to different groups.
This trial was designed in two parts.

[5] = tested on: patients with clinically diagnosed postpartum depression (PPD); experiment: Clinical trial of inhaled 5-MeO-DMT in postpartum depression: MADRS; type: in vivo, human; details: one PPD patient; for MADRS Concentration Difficulties improvement / MADRS Concentration Difficulties score / MADRS Reduced appetite improvement / MADRS Reduced appetite score / MADRS Suicidal Thoughts improvement / MADRS Suicidal Thoughts score: baseline 0; for MADRS Inability to Feel improvement / MADRS Inability to Feel score / MADRS Lassitude improvement / MADRS Lassitude score: baseline 3; for MADRS Pessimistic Thoughts improvement / MADRS Pessimistic Thoughts score / MADRS Reported sadness improvement / MADRS Reported sadness score: baseline 4; for MADRS Apparent sadness improvement / MADRS Apparent sadness score / MADRS Inner Tension improvement / MADRS Inner Tension score / MADRS Reduced Sleep improvement / MADRS Reduced Sleep score: baseline 5
Description: The patient completed all planned visit days.

[6] = 12 mg n=4, 3 hours, baseline 11
[7] = 12 mg n=4, 3 hours, baseline 14
[8] = 12 mg n=4, 3 hours, baseline 18
[9] = 12 mg n=4, 3 hours, baseline 25

COc1ccc2[nH]cc(CCN(C)C)c2c1 [5-MeO-DMT]
Patients who experienced at least one ADR ([1]; 12 mg single dose): 3 of 4
Patients who experienced at least one ADR ([1]; 18 mg single dose): 3 of 4
Induction of mutation [2]: did not induce mutation
Onset of effect [3]: merely seconds
BPRS Blunted Affect percentage improvement [4, 6]: 27%
BPRS Blunted Affect score (sum) [4, 6]: 8
BPRS Emotional Withdrawal percentage improvement ([4]; 12 mg n=4, 3 hours): 15%
BPRS Emotional Withdrawal score (sum) ([4]; 12 mg n=4, 3 hours): 11
BPRS Tension percentage improvement [4, 7]: 36%
BPRS Tension score (sum) [4, 7]: 9
BPRS Guilt Feelings percentage improvement [4, 8]: 50%
BPRS Guilt Feelings score (sum) [4, 8]: 9
BPRS Anxiety percentage improvement [4, 9]: 56%
BPRS Anxiety score (sum) [4, 9]: 11
BPRS Blunted Affect score (sum) ([4]; 12 mg n=4, Day 1, baseline 11): 6
BPRS Emotional Withdrawal score (sum) ([4]; 12 mg n=4, Day 1): 8
BPRS Tension percentage improvement ([4]; 12 mg n=4, Day 1, baseline 14): 57%
BPRS Tension score (sum) ([4]; 12 mg n=4, Day 1, baseline 14): 6
BPRS Guilt Feelings percentage improvement ([4]; 12 mg n=4, Day 1, baseline 18): 72%
BPRS Guilt Feelings score (sum) ([4]; 12 mg n=4, Day 1, baseline 18): 5
BPRS Anxiety percentage improvement ([4]; 12 mg n=4, Day 1, baseline 25): 76%
BPRS Anxiety score (sum) ([4]; 12 mg n=4, Day 1, baseline 25): 6
BPRS Blunted Affect score (sum) ([4]; 12 mg n=4, Day 7, baseline 11): 5
BPRS Emotional Withdrawal score (sum) ([4]; 12 mg n=4, Day 7): 6
BPRS Tension percentage improvement ([4]; 12 mg n=4, Day 7, baseline 14): 57%
BPRS Tension score (sum) ([4]; 12 mg n=4, Day 7, baseline 14): 6
BPRS Guilt Feelings percentage improvement ([4]; 12 mg n=4, Day 7, baseline 18): 72%
BPRS Guilt Feelings score (sum) ([4]; 12 mg n=4, Day 7, baseline 18): 5
BPRS Anxiety percentage improvement ([4]; 12 mg n=4, Day 7, baseline 25): 76%
BPRS Anxiety score (sum) ([4]; 12 mg n=4, Day 7, baseline 25): 6
BPRS Emotional Withdrawal percentage improvement ([4]; IDR n=8, 3 hours): 38%
BPRS Emotional Withdrawal score (sum) ([4]; IDR n=8, 3 hours): 8
BPRS Blunted Affect percentage improvement ([4]; IDR n=8, 3 hours, baseline 15): 27%
BPRS Blunted Affect score (sum) ([4]; IDR n=8, 3 hours, baseline 15): 11
BPRS Tension percentage improvement ([4]; IDR n=8, 3 hours, baseline 16): 31%
BPRS Tension score (sum) ([4]; IDR n=8, 3 hours, baseline 16): 11
BPRS Guilt Feelings percentage improvement ([4]; IDR n=8, 3 hours, baseline 34): 59%
BPRS Guilt Feelings score (sum) ([4]; IDR n=8, 3 hours, baseline 34): 14
BPRS Anxiety percentage improvement ([4]; IDR n=8, 3 hours, baseline 37): 49%
BPRS Anxiety score (sum) ([4]; IDR n=8, 3 hours, baseline 37): 19
BPRS Emotional Withdrawal score (sum) ([4]; IDR n=8, Day 1): 8
BPRS Blunted Affect score (sum) ([4]; IDR n=8, Day 1, baseline 15): 8
BPRS Tension percentage improvement ([4]; IDR n=8, Day 1, baseline 16): 31%
BPRS Tension score (sum) ([4]; IDR n=8, Day 1, baseline 16): 11
BPRS Guilt Feelings percentage improvement ([4]; IDR n=8, Day 1, baseline 34): 68%
BPRS Guilt Feelings score (sum) ([4]; IDR n=8, Day 1, baseline 34): 11
BPRS Anxiety percentage improvement ([4]; IDR n=8, Day 1, baseline 37): 57%
BPRS Anxiety score (sum) ([4]; IDR n=8, Day 1, baseline 37): 16
BPRS Emotional Withdrawal score (sum) ([4]; IDR n=8, Day 7): 8
BPRS Blunted Affect score (sum) ([4]; IDR n=8, Day 7, baseline 15): 8
BPRS Tension percentage improvement ([4]; IDR n=8, Day 7, baseline 16): 38%
BPRS Tension score (sum) ([4]; IDR n=8, Day 7, baseline 16): 10
BPRS Guilt Feelings percentage improvement ([4]; IDR n=8, Day 7, baseline 34): 71%
BPRS Guilt Feelings score (sum) ([4]; IDR n=8, Day 7, baseline 34): 10
BPRS Anxiety percentage improvement ([4]; IDR n=8, Day 7, baseline 37): 54%
BPRS Anxiety score (sum) ([4]; IDR n=8, Day 7, baseline 37): 17
MADRS remission (total score equal or less than 10) [5]: fulfilled standard criteria
MADRS response (at least 50% improvement from baseline) [5]: fulfilled standard criteria
MADRS Concentration Difficulties improvement ([5]; 2 hr): 0
MADRS Concentration Difficulties score ([5]; 2 hr): 0
MADRS Reduced appetite improvement ([5]; 2 hr): 0
MADRS Reduced appetite score ([5]; 2 hr): 0
MADRS Suicidal Thoughts improvement ([5]; 2 hr): 0
MADRS Suicidal Thoughts score ([5]; 2 hr): 0
MADRS Inability to Feel improvement ([5]; 2 hr): 3
MADRS Inability to Feel score ([5]; 2 hr): 0
MADRS Lassitude improvement ([5]; 2 hr): 3
MADRS Lassitude score ([5]; 2 hr): 0
MADRS Pessimistic Thoughts improvement ([5]; 2 hr): 4
MADRS Pessimistic Thoughts score ([5]; 2 hr): 0
MADRS Reported sadness improvement ([5]; 2 hr): 4
MADRS Reported sadness score ([5]; 2 hr): 0
MADRS Apparent sadness improvement ([5]; 2 hr): 5
MADRS Apparent sadness score ([5]; 2 hr): 0
MADRS Inner Tension improvement ([5]; 2 hr): 5
MADRS Inner Tension score ([5]; 2 hr): 0
MADRS Reduced Sleep improvement ([5]; 2 hr): 0
MADRS Reduced Sleep score ([5]; 2 hr): 5
MADRS Concentration Difficulties improvement ([5]; Day 1): 0
MADRS Concentration Difficulties score ([5]; Day 1): 0
MADRS Reduced appetite improvement ([5]; Day 1): 0
MADRS Reduced appetite score ([5]; Day 1): 0
MADRS Suicidal Thoughts improvement ([5]; Day 1): 0
MADRS Suicidal Thoughts score ([5]; Day 1): 0
MADRS Inability to Feel improvement ([5]; Day 1): 3
MADRS Inability to Feel score ([5]; Day 1): 0
MADRS Lassitude improvement ([5]; Day 1): 3
MADRS Pessimistic Thoughts improvement ([5]; Day 1): 4
MADRS Pessimistic Thoughts score ([5]; Day 1): 0
MADRS Reported sadness improvement ([5]; Day 1): 4
MADRS Reported sadness score ([5]; Day 1): 0
MADRS Apparent sadness improvement ([5]; Day 1): 5
MADRS Apparent sadness score ([5]; Day 1): 0
MADRS Inner Tension improvement ([5]; Day 1): 5
MADRS Inner Tension score ([5]; Day 1): 0
MADRS Reduced Sleep improvement ([5]; Day 1): 5
MADRS Reduced Sleep score ([5]; Day 1): 0
MADRS Concentration Difficulties improvement ([5]; Day 7): 0
MADRS Concentration Difficulties score ([5]; Day 7): 0
MADRS Reduced appetite improvement ([5]; Day 7): 0
MADRS Reduced appetite score ([5]; Day 7): 0
MADRS Suicidal Thoughts improvement ([5]; Day 7): 0
MADRS Suicidal Thoughts score ([5]; Day 7): 0
MADRS Inability to Feel improvement ([5]; Day 7): 3
MADRS Inability to Feel score ([5]; Day 7): 0
MADRS Lassitude improvement ([5]; Day 7): 3
MADRS Lassitude score ([5]; Day 7): 0
MADRS Pessimistic Thoughts improvement ([5]; Day 7): 4
MADRS Pessimistic Thoughts score ([5]; Day 7): 0
MADRS Reported sadness improvement ([5]; Day 7): 4
MADRS Reported sadness score ([5]; Day 7): 0
MADRS Apparent sadness improvement ([5]; Day 7): 5
MADRS Apparent sadness score ([5]; Day 7): 0
MADRS Inner Tension improvement ([5]; Day 7): 4
MADRS Inner Tension score ([5]; Day 7): 1
MADRS Reduced Sleep improvement ([5]; Day 7): 5
MADRS Reduced Sleep score ([5]; Day 7): 0
Durability of clinical response ([5]; IDR 6 mg then 12 mg): sustained over the 7-day follow-up period
Time to clinical response after administration ([5]; IDR 6 mg then 12 mg): ≤ 2 h
